≈ marks a conversion by molar mass, not a printed value.

In ChEMBL document CHEMBL4715905, “Solution Conformations Shed Light on PROTAC Cell Permeability” (ACS Med Chem Lett, 2021) one finds IC50, solubility and logD data, which are given here for one compound.

The target in data set [1] is Mitogen-activated protein kinase 7 (Homo sapiens, UniProt Q13164). Nature of the data set: Inhibition of recombinant human GST-tagged ERK5 (1 to 398 assessed as phosphorylated peptide substrate incubated for 60 mins by TR-FRET based biochemical assay.
Sequence of Mitogen-activated protein kinase 7 (Q13164 whole entry): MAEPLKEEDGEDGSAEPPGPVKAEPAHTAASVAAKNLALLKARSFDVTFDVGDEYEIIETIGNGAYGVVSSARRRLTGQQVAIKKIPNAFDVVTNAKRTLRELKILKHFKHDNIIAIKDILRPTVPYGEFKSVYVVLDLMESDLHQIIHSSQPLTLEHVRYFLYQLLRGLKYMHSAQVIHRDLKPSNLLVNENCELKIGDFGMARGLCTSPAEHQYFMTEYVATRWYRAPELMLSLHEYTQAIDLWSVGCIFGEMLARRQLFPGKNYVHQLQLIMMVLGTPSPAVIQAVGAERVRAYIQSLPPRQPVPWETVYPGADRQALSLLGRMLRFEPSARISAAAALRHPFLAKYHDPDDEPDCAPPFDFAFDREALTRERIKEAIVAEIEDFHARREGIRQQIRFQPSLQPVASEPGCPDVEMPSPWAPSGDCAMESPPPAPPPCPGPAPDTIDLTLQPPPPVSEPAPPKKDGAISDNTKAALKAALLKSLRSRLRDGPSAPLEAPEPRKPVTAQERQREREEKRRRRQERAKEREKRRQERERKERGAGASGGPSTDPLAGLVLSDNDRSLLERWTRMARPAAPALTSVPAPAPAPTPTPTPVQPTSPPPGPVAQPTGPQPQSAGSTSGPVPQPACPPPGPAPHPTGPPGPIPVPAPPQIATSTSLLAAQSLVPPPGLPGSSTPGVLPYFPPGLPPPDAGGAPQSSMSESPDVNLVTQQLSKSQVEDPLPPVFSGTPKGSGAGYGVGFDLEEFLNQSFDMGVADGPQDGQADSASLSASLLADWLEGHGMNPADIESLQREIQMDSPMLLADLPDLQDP
Data set [2] can be described thus: Solubility of compound in PBS buffer at pH 6.5. In kind it is physicochemical.
Data set [3] can be described thus: Lipophilicity, logD of compound at pH 7.5. To be noted: buffer. It counts as physicochemical.

Take `Cc1ncsc1-c1ccc(CNC(=O)[C@@H]2C[C@@H](O)CN2C(=O)[C@@H](NC(=O)COCCOCCNC(=O)COc2cnc3c(C4CCN(C(=O)c5ccc(OC(F)(F)F)cc5)CC4)ncnc3c2)C(C)(C)C)cc1`: the IC50 in data set [1] was 1230 nM. For the same compound, the solubility in data set [2] was 7 µg/mL (≈ 6.77 µM). The log distribution coefficient (logD) in data set [3] worked out at 2.68.
